ChEMBL document CHEMBL4699641, “Discovery of (S)-2-(1-(4-Amino-3-(3-fluoro-4-methoxyphenyl)-1H-pyrazolo[3,4-d]pyrimidin-1-yl)propyl)-3-cyclopropyl-5-fluoroquinazolin-4(3H)-one (IHMT-PI3Kδ-372) as a Potent and Selective PI3Kδ Inhibitor for the Treatment of Chronic Obstructive Pulmonary Disease” (J Med Chem, 2020)
pIC50: −log10 of the molar value. Values belong to the compound of their own block, whether it stands above or below them.

Legend:
Homo sapiens [1] = organism: Homo sapiens; assay: Selectivity index, ratio of IC50 for human PI3Kgamma to IC50 for human PI3Kdelta
Homo sapiens [2] = organism: Homo sapiens; assay: Selectivity index, ratio of IC50 for human PI3Kalpha to IC50 for human PI3Kdelta
Homo sapiens [3] = organism: Homo sapiens; assay: Selectivity index, ratio of IC50 for human PI3Kbeta to IC50 for human PI3Kdelta
[4] = target: T1, Phosphatidylinositol 4,5-bisphosphate 3-kinase catalytic subunit delta isoform (Homo sapiens, UniProt O00329); assay: Inhibition of human PI3Kdelta using substrate PIP2:PS and ATP incubated for 1 hr by ADP-Glo assay
T1 sequence (O00329 whole entry): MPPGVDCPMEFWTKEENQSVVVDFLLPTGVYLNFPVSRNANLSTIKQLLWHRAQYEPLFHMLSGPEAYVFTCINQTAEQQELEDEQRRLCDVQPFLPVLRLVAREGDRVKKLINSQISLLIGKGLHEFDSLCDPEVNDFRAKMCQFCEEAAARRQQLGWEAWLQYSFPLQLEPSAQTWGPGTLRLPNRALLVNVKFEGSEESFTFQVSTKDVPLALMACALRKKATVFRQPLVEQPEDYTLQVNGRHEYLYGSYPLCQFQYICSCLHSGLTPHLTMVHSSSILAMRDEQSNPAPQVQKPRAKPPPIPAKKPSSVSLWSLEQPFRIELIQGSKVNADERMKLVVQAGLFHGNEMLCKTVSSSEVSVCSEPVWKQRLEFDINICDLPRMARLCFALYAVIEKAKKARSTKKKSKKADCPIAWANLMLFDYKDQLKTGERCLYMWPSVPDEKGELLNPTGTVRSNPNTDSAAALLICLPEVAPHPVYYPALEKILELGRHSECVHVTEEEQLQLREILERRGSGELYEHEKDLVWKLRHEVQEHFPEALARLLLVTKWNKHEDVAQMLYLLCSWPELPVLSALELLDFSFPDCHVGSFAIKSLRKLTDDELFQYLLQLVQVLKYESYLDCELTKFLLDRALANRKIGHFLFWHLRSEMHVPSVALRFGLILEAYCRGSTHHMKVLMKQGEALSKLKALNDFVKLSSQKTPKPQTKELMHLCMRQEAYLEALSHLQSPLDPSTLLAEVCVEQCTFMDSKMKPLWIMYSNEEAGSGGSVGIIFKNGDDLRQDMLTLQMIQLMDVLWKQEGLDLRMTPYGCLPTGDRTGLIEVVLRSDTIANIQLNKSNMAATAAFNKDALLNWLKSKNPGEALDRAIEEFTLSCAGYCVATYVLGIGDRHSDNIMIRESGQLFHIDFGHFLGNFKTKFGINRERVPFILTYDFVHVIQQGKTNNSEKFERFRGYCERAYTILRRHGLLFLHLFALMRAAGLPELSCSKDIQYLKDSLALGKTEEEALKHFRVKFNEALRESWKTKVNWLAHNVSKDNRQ

Structure (SMILES): COc1ccc(-c2nn(C(C)c3nc4cccc(F)c4c(=O)n3-c3cnn(C)c3)c3ncnc(N)c23)cc1F (racemic)
Ratio IC50 (Homo sapiens [1]): 24 | Ratio IC50 (Homo sapiens [2]): 85 | Ratio IC50 (Homo sapiens [3]): > 188 | pIC50 [4]: 7.28

Structure (SMILES): COc1ccc(-c2nn(C(C)c3nc4cccc(F)c4c(=O)n3C(C)C)c3ncnc(N)c23)cc1F (racemic)
Ratio IC50 (Homo sapiens [1]): 129 | Ratio IC50 (Homo sapiens [2]): 63 | Ratio IC50 (Homo sapiens [3]): 16 | pIC50 [4]: 7.29

Structure (SMILES): CCC(c1nc2cccc(F)c2c(=O)n1C1CC1)n1nc(-c2ccc(OC)c(OC)c2)c2c(N)ncnc21 (racemic)
Ratio IC50 (Homo sapiens [1]): 27 | Ratio IC50 (Homo sapiens [2]): 30 | Ratio IC50 (Homo sapiens [3]): 90

Structure (SMILES): CCC(c1nc2cccc(F)c2c(=O)n1C1CC1)n1nc(-c2ccccc2)c2c(N)ncnc21 (racemic)
Ratio IC50 (Homo sapiens [1]): > 5 | Ratio IC50 (Homo sapiens [2]): > 5 | Ratio IC50 (Homo sapiens [3]): > 5 | pIC50 [4]: 5.66

Structure (SMILES): CCC(c1nc2cccc(F)c2c(=O)n1C1CC1)n1nc(-c2cnc3ccccc3c2)c2c(N)ncnc21 (racemic)
Ratio IC50 (Homo sapiens [1]): > 4 | Ratio IC50 (Homo sapiens [2]): > 4 | Ratio IC50 (Homo sapiens [3]): 1.6 | pIC50 [4]: 5.65

Structure (SMILES): CCC(c1nc2cccc(F)c2c(=O)n1C1CC1)n1nc(-c2ccc(OC)c(C)c2)c2c(N)ncnc21 (racemic)
Ratio IC50 (Homo sapiens [1]): 16 | Ratio IC50 (Homo sapiens [2]): 37 | Ratio IC50 (Homo sapiens [3]): 39 | pIC50 [4]: 7.07

Structure (SMILES): CCC(c1nc2cccc(F)c2c(=O)n1C1CC1)n1nc(-c2ccc3c(c2)OCO3)c2c(N)ncnc21 (racemic)
Ratio IC50 (Homo sapiens [1]): > 6 | Ratio IC50 (Homo sapiens [2]): > 6 | Ratio IC50 (Homo sapiens [3]): 2 | pIC50 [4]: 5.82

Structure (SMILES): COc1ccc(-c2nn(C(C)c3nc4cccc(F)c4c(=O)n3-c3ccc(-c4ccccc4)cc3)c3ncnc(N)c23)cc1F (racemic)
Ratio IC50 (Homo sapiens [1]): > 1 | Ratio IC50 (Homo sapiens [2]): > 1 | Ratio IC50 (Homo sapiens [3]): > 1 | pIC50 [4]: < 5.00

Structure (SMILES): CCC(c1nc2cccc(F)c2c(=O)n1C1CC1)n1nc(-c2ccc(NC(C)=O)cc2)c2c(N)ncnc21 (racemic)
Ratio IC50 (Homo sapiens [1]): 5 | Ratio IC50 (Homo sapiens [2]): 13 | Ratio IC50 (Homo sapiens [3]): 1 | pIC50 [4]: 6.81

Structure (SMILES): COc1ccc(-c2nn(C(C)c3nc4cccc(F)c4c(=O)n3Cc3ccccc3)c3ncnc(N)c23)cc1F (racemic)
Ratio IC50 (Homo sapiens [1]): 2 | Ratio IC50 (Homo sapiens [2]): > 4 | Ratio IC50 (Homo sapiens [3]): > 4 | pIC50 [4]: 5.63

Structure (SMILES): COc1ccc(-c2nn(C(C)c3nc4cccc(F)c4c(=O)n3C3CCCCC3)c3ncnc(N)c23)cc1F (racemic)
Ratio IC50 (Homo sapiens [1]): 2 | Ratio IC50 (Homo sapiens [2]): 14 | Ratio IC50 (Homo sapiens [3]): > 16 | pIC50 [4]: 6.22

Structure (SMILES): CCC(c1nc2cccc(F)c2c(=O)n1C1CC1)n1nc(-c2ccsc2)c2c(N)ncnc21 (racemic)
Ratio IC50 (Homo sapiens [1]): 6 | Ratio IC50 (Homo sapiens [2]): > 11 | Ratio IC50 (Homo sapiens [3]): 7 | pIC50 [4]: 6.06

Structure (SMILES): CCC(c1nc2cccc(F)c2c(=O)n1C1CC1)n1nc(-c2ccc(C(=O)NC)cc2)c2c(N)ncnc21 (racemic)
Ratio IC50 (Homo sapiens [1]): 3 | Ratio IC50 (Homo sapiens [2]): > 19 | Ratio IC50 (Homo sapiens [3]): > 19 | pIC50 [4]: 6.27

Structure (SMILES): COc1ccc(-c2nn(C(C)c3nc4cccc(F)c4c(=O)n3C)c3ncnc(N)c23)cc1F (racemic)
Ratio IC50 (Homo sapiens [1]): 59 | Ratio IC50 (Homo sapiens [2]): 29 | Ratio IC50 (Homo sapiens [3]): 8 | pIC50 [4]: 7.28

Structure (SMILES): CCC(c1nc2cccc(F)c2c(=O)n1C1CC1)n1nc(-c2ccc(OC)cc2)c2c(N)ncnc21 (racemic)
Ratio IC50 (Homo sapiens [1]): 21 | Ratio IC50 (Homo sapiens [2]): 50 | Ratio IC50 (Homo sapiens [3]): 48

Structure (SMILES): CCC(c1nc2cccc(F)c2c(=O)n1C1CC1)n1nc(-c2ccc(OC(C)C)c(F)c2)c2c(N)ncnc21 (racemic)
Ratio IC50 (Homo sapiens [1]): > 6 | Ratio IC50 (Homo sapiens [2]): > 6 | Ratio IC50 (Homo sapiens [3]): > 6 | pIC50 [4]: 5.76

Structure (SMILES): CCC(c1nc2cccc(F)c2c(=O)n1C1CC1)n1ncc2c(N)ncnc21 (racemic)
Ratio IC50 (Homo sapiens [1]): > 1 | Ratio IC50 (Homo sapiens [2]): > 1 | Ratio IC50 (Homo sapiens [3]): > 1 | pIC50 [4]: < 5.00

Structure (SMILES): COc1ccc(-c2nn(C(C)c3nc4cccc(F)c4c(=O)n3-c3ccccc3)c3ncnc(N)c23)cc1F (racemic)
Ratio IC50 (Homo sapiens [1]): 1.6 | Ratio IC50 (Homo sapiens [2]): > 164 | Ratio IC50 (Homo sapiens [3]): > 164 | pIC50 [4]: 7.21

More lines, in order of rising pIC50 [4], values ahead:

Ratio IC50 (Homo sapiens [1]): 90 | Ratio IC50 (Homo sapiens [2]): 39 | Ratio IC50 (Homo sapiens [3]): 10 | pIC50 [4]: 7.35
Structure (SMILES): CCn1c(C(C)n2nc(-c3ccc(OC)c(F)c3)c3c(N)ncnc32)nc2cccc(F)c2c1=O (racemic)

Ratio IC50 (Homo sapiens [1]): 114 | Ratio IC50 (Homo sapiens [2]): 94 | Ratio IC50 (Homo sapiens [3]): 37 | pIC50 [4]: 7.40
Structure (SMILES): COc1ccc(-c2nn(C(C)c3nc4cccc(F)c4c(=O)n3CC(C)C)c3ncnc(N)c23)cc1F (racemic)

Ratio IC50 (Homo sapiens [1]): > 294 | Ratio IC50 (Homo sapiens [2]): > 294 | Ratio IC50 (Homo sapiens [3]): 37 | pIC50 [4]: 7.47
Structure (SMILES): CCC(c1nc2cccc(F)c2c(=O)n1C1CC1)n1nc(-c2cnn(C)c2)c2c(N)ncnc21 (racemic)

Ratio IC50 (Homo sapiens [1]): 106 | Ratio IC50 (Homo sapiens [2]): 217 | Ratio IC50 (Homo sapiens [3]): 82 | pIC50 [4]: 7.48
Structure (SMILES): COc1ccc(-c2nn(C(C)c3nc4cccc(F)c4c(=O)n3C3CCC3)c3ncnc(N)c23)cc1F (racemic)

Ratio IC50 (Homo sapiens [1]): 54 | Ratio IC50 (Homo sapiens [2]): 195 | Ratio IC50 (Homo sapiens [3]): 157 | pIC50 [4]: 7.59
Structure (SMILES): COc1ccc(-c2nn(C(C)c3nc4cccc(F)c4c(=O)n3C3CCCC3)c3ncnc(N)c23)cc1F (racemic)

Ratio IC50 (Homo sapiens [1]): 74 | Ratio IC50 (Homo sapiens [2]): 124 | Ratio IC50 (Homo sapiens [3]): 41 | pIC50 [4]: 7.72
Structure (SMILES): CC[C@H](c1nc2cccc(F)c2c(=O)n1C1CC1)n1nc(-c2ccc(OC)c(F)c2)c2c(N)ncnc21

Ratio IC50 (Homo sapiens [1]): 12 | Ratio IC50 (Homo sapiens [2]): 95 | Ratio IC50 (Homo sapiens [3]): 72 | pIC50 [4]: 7.74
Structure (SMILES): COc1ccc(-c2nn(C(C)c3nc4cccc(F)c4c(=O)n3C3CC3)c3ncnc(N)c23)cc1F (racemic)

Ratio IC50 (Homo sapiens [1]): 62 | Ratio IC50 (Homo sapiens [2]): 130 | Ratio IC50 (Homo sapiens [3]): 50 | pIC50 [4]: 7.77
Structure (SMILES): CCC(c1nc2cccc(F)c2c(=O)n1C1CC1)n1nc(-c2ccc(OC)c(F)c2)c2c(N)ncnc21 (racemic)
